According to PubChem BioAssay (NCI):
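Assay format: 96-well plates, 48-hour exposure. TGI is the concentration that stops growth completely.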

Columns and labels:
Test in all cases: NCI tumour cell line growth inhibition, 48 h
SF-295 CNS = test system: SF-295 CNS
KM12 colon = test system: KM12 colon
RPMI-8226 leukemia = test system: RPMI-8226 leukemia
IGROV1 ovarian = test system: IGROV1 ovarian
SK-MEL-2 melanoma = test system: SK-MEL-2 melanoma
SR leukemia = test system: SR leukemia
A498 renal = test system: A498 renal
786-0 renal = test system: 786-0 renal
BT-549 breast = test system: BT-549 breast
LOX IMVI melanoma = test system: LOX IMVI melanoma
OVCAR-8 ovarian = test system: OVCAR-8 ovarian
MOLT-4 leukemia = test system: MOLT-4 leukemia
TK-10 renal = test system: TK-10 renal
CCRF-CEM leukemia = test system: CCRF-CEM leukemia
OVCAR-3 ovarian = test system: OVCAR-3 ovarian
HCT-116 colon = test system: HCT-116 colon
HOP-92 NSCLC = test system: HOP-92 NSCLC
T-47D breast = test system: T-47D breast
UACC-257 melanoma = test system: UACC-257 melanoma
MDA-N = test system: MDA-N
PC-3 prostate = test system: PC-3 prostate
MDA-MB-435 = test system: MDA-MB-435
MALME-3M melanoma = test system: MALME-3M melanoma
SNB-19 CNS = test system: SNB-19 CNS
HT29 colon = test system: HT29 colon
HL-60(TB) leukemia = test system: HL-60(TB) leukemia
SW-620 colon = test system: SW-620 colon
HOP-62 NSCLC = test system: HOP-62 NSCLC
SF-539 CNS = test system: SF-539 CNS
OVCAR-5 ovarian = test system: OVCAR-5 ovarian
NCI-H460 lung = test system: NCI-H460 lung
HCT-15 colon = test system: HCT-15 colon
MDA-MB-231 breast = test system: MDA-MB-231 breast
HS 578T breast = test system: HS 578T breast
CAKI-1 renal = test system: CAKI-1 renal
RXF 393 renal = test system: RXF 393 renal
ACHN renal = test system: ACHN renal
SNB-75 CNS = test system: SNB-75 CNS
COLO 205 colon = test system: COLO 205 colon
UO-31 renal = test system: UO-31 renal
SK-MEL-5 melanoma = test system: SK-MEL-5 melanoma
OVCAR-4 ovarian = test system: OVCAR-4 ovarian
K-562 leukemia = test system: K-562 leukemia
EKVX NSCLC = test system: EKVX NSCLC
NCI-H522 lung = test system: NCI-H522 lung
M14 melanoma = test system: M14 melanoma
A549 NSCLC = test system: A549 NSCLC
UACC-62 melanoma = test system: UACC-62 melanoma
U251 CNS = test system: U251 CNS
NCI-H23 lung = test system: NCI-H23 lung
SK-OV-3 ovarian = test system: SK-OV-3 ovarian
NCI/ADR-RES ovarian = test system: NCI/ADR-RES ovarian
SF-268 CNS = test system: SF-268 CNS
MCF7 breast = test system: MCF7 breast
NCI-H226 lung = test system: NCI-H226 lung
DU-145 prostate = test system: DU-145 prostate
SN12C renal = test system: SN12C renal
SK-MEL-28 melanoma = test system: SK-MEL-28 melanoma

Measured: TGI

O=c1c(Cc2ccccc2)c(-c2ccccc2)[nH]n1C1=NCCN1
66.7 µM: HCT-116 colon
57 µM: HT29 colon
38.1 µM: LOX IMVI melanoma
not listed: DU-145 prostate | SN12C renal | SK-MEL-28 melanoma
> 100 µM: all other assays above

CC12CCC(C/C1=N\NC(N)=O)C2(C)C (centres undefined)
not listed: A498 renal | SF-539 CNS | MDA-MB-231 breast | RXF 393 renal
> 100 µM: all other assays above
